Legend:
[1] = for mass density / kinematic viscosity: 101.33 kPa, Liquid; for mass density: Vibrating tube method; for surface tension liquid-gas / kinematic viscosity: Surface laser light scattering (SLLS)
[2] = refractive index (Na D-line) (dimensionless); conditions: 101.33 kPa, Liquid, Standard Abbe refractometry

CCCCCCCC(=O)OCC [ethyl octanoate]
Conditions	kinematic viscosity [m2/s]	mass density [kg/m3]	refractive index	surface tension liquid-gas [mN/m]
[1], 293.15 K	–	866.99	–	–
[1], 298.15 K	1.52e-06	–	–	25.38
[1], 303.15 K	–	858.27	–	–
[1], 313.15 K	–	849.55	–	–
[1], 323.14 K	1.15e-06	–	–	23.34
[1], 323.15 K	–	839.92	–	–
[1], 333.15 K	–	832	–	–
[1], 343.15 K	–	823.46	–	–
[1], 348.17 K	8.92e-07	–	–	21.5
[1], 353.15 K	–	814.74	–	–
[1], 363.15 K	–	805.97	–	–
[1], 373.15 K	–	797.16	–	–
[1], 373.19 K	6.88e-07	–	–	19.5
[1], 383.15 K	–	788.08	–	–
[1], 393.15 K	–	779.34	–	–
[1], 398.2 K	5.45e-07	–	–	17.44
[1], 403.15 K	–	770.31	–	–
[1], 413.15 K	–	761.18	–	–
[1], 423.15 K	–	751.94	–	–
[1], 423.18 K	4.53e-07	–	–	15.36
[1], 433.15 K	–	742.64	–	–
[1], 443.15 K	–	733.17	–	–
[1], 448.17 K	3.86e-07	–	–	13.16
[1], 453.15 K	–	723.58	–	–
[2], 278.15 K	–	–	1.42461	–
[2], 283.15 K	–	–	1.42242	–
[2], 288.15 K	–	–	1.42025	–
[2], 293.15 K	–	–	1.41807	–
[2], 298.15 K	–	–	1.41587	–
[2], 303.15 K	–	–	1.41367	–
[2], 308.15 K	–	–	1.41148	–
[2], 313.15 K	–	–	1.40926	–
[2], 318.15 K	–	–	1.40703	–
[2], 323.15 K	–	–	1.40481	–
[2], 328.15 K	–	–	1.40261	–
[2], 333.15 K	–	–	1.40042	–
[2], 338.15 K	–	–	1.39823	–
[2], 343.15 K	–	–	1.39603	–
[2], 348.15 K	–	–	1.39386	–
[2], 353.15 K	–	–	1.3917	–
[2], 358.15 K	–	–	1.38955	–

CCCCCCCCCC(=O)OCC [ethyl decanoate]
Conditions	kinematic viscosity [m2/s]	mass density [kg/m3]	refractive index	surface tension liquid-gas [mN/m]
[1], 293.15 K	–	864.08	–	–
[1], 298.13 K	2.2e-06	–	–	23.87
[1], 303.15 K	–	855.82	–	–
[1], 313.15 K	–	847.62	–	–
[1], 323.11 K	1.59e-06	–	–	22.57
[1], 323.15 K	–	839.41	–	–
[1], 333.15 K	–	830.71	–	–
[1], 343.15 K	–	822.79	–	–
[1], 348.1 K	1.22e-06	–	–	21.38
[1], 353.15 K	–	814.9	–	–
[1], 363.15 K	–	806.72	–	–
[1], 373.15 K	–	798.5	–	–
[1], 373.17 K	9.55e-07	–	–	19.81
[1], 383.15 K	–	790.26	–	–
[1], 393.15 K	–	781.97	–	–
[1], 398.16 K	7.48e-07	–	–	18.26
[1], 403.15 K	–	773.63	–	–
[1], 413.15 K	–	765.29	–	–
[1], 423.12 K	6.18e-07	–	–	16.8
[1], 423.15 K	–	756.81	–	–
[1], 433.15 K	–	748.26	–	–
[1], 443.15 K	–	739.7	–	–
[1], 448.1 K	4.92e-07	–	–	14.86
[1], 453.15 K	–	731.01	–	–
[2], 278.15 K	–	–	1.43213	–
[2], 283.15 K	–	–	1.43	–
[2], 288.15 K	–	–	1.42789	–
[2], 293.15 K	–	–	1.42577	–
[2], 298.15 K	–	–	1.42366	–
[2], 303.15 K	–	–	1.42155	–
[2], 308.15 K	–	–	1.41944	–
[2], 313.15 K	–	–	1.41729	–
[2], 318.15 K	–	–	1.41512	–
[2], 323.15 K	–	–	1.41297	–
[2], 328.15 K	–	–	1.41084	–
[2], 333.15 K	–	–	1.40873	–
[2], 338.15 K	–	–	1.40661	–
[2], 343.15 K	–	–	1.40451	–
[2], 348.15 K	–	–	1.40241	–
[2], 353.15 K	–	–	1.40034	–
[2], 358.15 K	–	–	1.39826	–

CCCCCC(=O)OC [methyl hexanoate]
Conditions	kinematic viscosity [m2/s]	mass density [kg/m3]	refractive index	surface tension liquid-gas [mN/m]
[1], 293.15 K	–	884.44	–	–
[1], 298.14 K	1.02e-06	–	–	24.58
[1], 303.15 K	–	874.79	–	–
[1], 313.15 K	–	865.12	–	–
[1], 323.15 K	–	855.4	–	–
[1], 323.17 K	7.49e-07	–	–	22.44
[1], 333.15 K	–	845.68	–	–
[1], 343.15 K	–	835.87	–	–
[1], 348.18 K	5.74e-07	–	–	20.35
[1], 353.15 K	–	825.97	–	–
[1], 363.15 K	–	815.95	–	–
[1], 373.15 K	–	805.49	–	–
[1], 373.21 K	4.53e-07	–	–	18.03
[1], 383.15 K	–	795.6	–	–
[1], 393.15 K	–	785.23	–	–
[1], 398.2 K	3.74e-07	–	–	15.63
[1], 403.15 K	–	774.67	–	–
[1], 413.15 K	–	763.86	–	–
[1], 423.17 K	3.25e-07	–	–	13.36
[1], 448.17 K	2.82e-07	–	–	11.18
[2], 278.15 K	–	–	1.41212	–
[2], 283.15 K	–	–	1.40984	–
[2], 288.15 K	–	–	1.40757	–
[2], 293.15 K	–	–	1.40529	–
[2], 298.15 K	–	–	1.403	–
[2], 303.15 K	–	–	1.4007	–
[2], 308.15 K	–	–	1.39841	–
[2], 313.15 K	–	–	1.3961	–
[2], 318.15 K	–	–	1.39373	–
[2], 323.15 K	–	–	1.39136	–
[2], 328.15 K	–	–	1.38902	–
[2], 333.15 K	–	–	1.38667	–
[2], 338.15 K	–	–	1.38432	–
[2], 343.15 K	–	–	1.38169	–
[2], 348.15 K	–	–	1.37961	–
[2], 353.15 K	–	–	1.37725	–
[2], 358.15 K	–	–	1.3749	–

Reference: the NIST ThermoML archive (doi:10.1016/j.jct.2019.02.025)
